# Test results: patent publication US7507753B2, “Biaryl compound and use thereof” (Takeda Chemical Industries Ltd., priority 2001, dated 2009)
# Structures can show the parent of a compound that is named as a salt.
# Target: T1, Human MC4R (Homo sapiens, UniProt P32245)
# T1 construct: expressed in transfected cells; plasmid pMC4R in vector pMSR alpha neo
# Experiment: [125I]-[Nle4,D-Phe7]-α-MSH binding inhibition in CHO/MC4R cells
# Conditions: test compound 10 μM, 100 pM [125I]-[Nle4,D-Phe7]-α-MSH, room temperature, 60 minutes
# Experimental: (1) Cloning of Human MC4R
# Cloning of MC4R gene was conducted from human brain cDNA by PCR method. Using 0.5 ng of brain cDNA (Clontech, Quick-lone cDNA) as a genetic template, primer sets prepared by referring to MC4R gene base sequence described in Birkenbach M. et al. (J. Virol, 67(4),2209-2220(1993)), i.e., primer-1: 5′-[…]-3′ [Sequence No.:1] and primer-2: 5′-[…]-3′ [Sequence No.:2] were added in amounts of 50 pmol, respectively, and, the PCR reaction was carried out using TaKaRa LA Taq(Takara Shuzo)in Gene Amp PCR System 9600 (Applied Biosystems)(Reaction conditions: 35 cycles of 95° C. for 1 minute, 62° C. for 1 minute, and 72° C. for 3 minutes).
# (2) Preparation of Expression Plasmid for Human MC4R
# After the PCR fragments obtained above were digested by restriction enzymes Eco RI (Takara Shuzo) and Sal I (Takara Shuzo), DNA fragments were collected by agarose gel electrophoresis. The DNA fragments and an expression plasmid for animal cells pMSR a neo (Japanese Unexamined Patent Application Publication No. 2000-281685, WO 00/44756), which was previously digested by Eco RI and Sal I, were mixed and ligated using a DNA Ligation Kit Ver. 2 (Takara Shuzo). Transformation of E. coli JM109 competent cells gave plasmid pMC4R.
# (3) Introduction of the Expression Plasmid for Human MC4R into CHO-K1 Cells and Expression thereof
# CHO-KI cells grown in 150 cm^2 of a cell culture flask (Corning Costar) using Ham F12 medium (GIBCO BRL) containing 10% fetal bovine serum (GIBCO BRL) were collected by using 0.5 g/L trypsin-0.2 g/L EDTA (GIBCO BRL). The cells were washed with PBS (GIBCO BRL), centrifuged (1000 rpm, 5 minutes), and were suspended in PBS. Then, the DNA was introduced into the cells using Gene Pulser (BioRad) according to the following conditions. Namely, 1×10^7 cells and 15 μg of human MC4R expression plasmid pMC4R were placed in a 0.4-cm gap cuvette, and the mixture was electropolated under 0.25 kV of electric voltage, and 960 μF of capacitance. Cells were then transferred to Ham F12 medium containing 10% fetal bovine serum. After incubation for 24 hours, cells were collected, centrifuged, and suspended in Ham F12 medium containing 10% fetal bovine serum and Geneticin (GIBCO BRL) at a concentration of 500 μg/ml. Cells were diluted to a concentration of 10^4 cells/ml, and inoculated in 96-well plate (Corning Costar) to obtain Geneticin-resistant strains.
# The Geneticin-resistant strains were grown in 96-well plates (OPAQUE PLATE 3917, Costar), and MC4R-expressing cells were selected from the resistant strains. Namely, in an assay buffer (20 mM HEPES (Dojindo Laboratories, Inc.), 0.5% BSA, 0.05% NaN3) containing 200 pM [^125I]-[Nle4,D-Phe7]-α-Melanocyte Stimulating Hormone (Daiichi Pure Chemicals Co., Ltd.), the cells were subjected to binding reaction at room temperature for 60 minutes. After the assay buffer was removed by inspiration, the cells were washed with ice-cooled PBS, and then stirred after adding 100 μl/well of MicroScint-20 (Packard Industry Company, Inc.) to each well. Subsequently, the cells were counted for radioactivity using a Top Count (Packard) to select CHO/MC4R strains, the cells to which [^125I]-[Nle4,D-Phe7]-α-Melanocyte Stimulating Hormone bound specifically. […]
# The CHO/MC4R strains were inoculated in 96 well microplate at a concentration of 1×10^4 cells/well, and grown for 72 hours. […] Then, 100 μl MicroScint 20 (Packerd) was added to each well, and the radioactivity of each well was measured by Top Count (Packard). […]
# T1 sequence (P32245 whole entry): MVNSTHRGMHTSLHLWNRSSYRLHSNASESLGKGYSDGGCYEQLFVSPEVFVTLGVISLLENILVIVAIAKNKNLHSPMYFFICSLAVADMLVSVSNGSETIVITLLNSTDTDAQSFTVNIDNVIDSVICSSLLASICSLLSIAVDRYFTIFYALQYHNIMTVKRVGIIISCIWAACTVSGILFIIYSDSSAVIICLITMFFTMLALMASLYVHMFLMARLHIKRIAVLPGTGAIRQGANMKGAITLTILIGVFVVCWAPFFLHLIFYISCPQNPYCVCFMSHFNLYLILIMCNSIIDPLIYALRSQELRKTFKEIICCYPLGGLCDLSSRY
row,SMILES,Binding Inhibitory Ratio [%]
1,"CC(c1cccc(-c2ccccc2C(=O)NCCN)c1)N(C(=O)Cc1ccc2ccccc2c1)C1CCN(Cc2ccccc2)CC1 (centres unmarked) [Example 1, N-(2-aminoethyl)-3′-[1-{N-(1-benzylpiperidin-4-yl)-N-(2-naphthylacetyl)amino}ethyl][1,1′-biphenyl)-2-carboxamide dihydrochloride]",96
2,"CC(c1cccc(-c2ccccc2C(=O)NCCN)c1)N(C(=O)Cc1ccc(Cl)cc1)C1CCN(Cc2ccccc2)CC1 (centres unmarked) [Example 3, N-(2-aminoethyl)-3′-[1-{N-(1-benzylpiperidin-4-yl)-N-(4-chlorophenylacetyl)amino}ethyl][1,1′-biphenyl]-2-carboxamide dihydrochloride]",97
3,"CC(c1cccc(-c2ccccc2C(=O)NCCN)c1)N(C(=O)Cc1ccc(Br)cc1)C1CCN(Cc2ccccc2)CC1 (centres unmarked) [Example 2, N-(2-aminoethyl) -3′-[1-{N-(1-benzylpiperidin-4-yl)-N-(4-bromophenylacetyl)amino}ethyl][1,1′-biphenyl]-2-carboxamide dihydrochloride]",97

# Continued, values first:
row,Binding Inhibitory Ratio [%],SMILES
1,100,"CC(c1cccc(-c2ccccc2C(=O)NCCN)c1)N(C(=O)Cc1ccc(Cl)c(Cl)c1)C1CCN(Cc2ccccc2)CC1 (centres unmarked) [Example 9, N-(2-aminoethyl)-3′-[1-{N-(1-benzylpiperidin-4-yl)-N-(3,4-dichlorophenylacetyl)amino}ethyl][1,1′-biphenyl]-2-carboxamide dihydrochloride]"
2,92,"CC(c1cccc(-c2ccccc2C(=O)NCCN)c1)N(C(=O)Cc1cccc(Cl)c1)C1CCN(Cc2ccccc2)CC1 (centres unmarked) [Example 4, N-(2-aminoethyl)-3′-[1-(N-(1-benzylpiperidin-4-yl)-N-(3-chlorophenylacetyl)amino}ethyl][1,1′-biphenyl]-2-carboxamide dihydrochloride]"
